From patent US12297190B2, “Modulators of STING (stimulator of interferon genes)” (PFIZER INC., priority 2019, dated 2025)

Biological target: R232-STING (Homo sapiens, UniProt Q86WV6, H232R)
Experiment: biochemical

Sequence of R232-STING (Q86WV6 155-341 H232R): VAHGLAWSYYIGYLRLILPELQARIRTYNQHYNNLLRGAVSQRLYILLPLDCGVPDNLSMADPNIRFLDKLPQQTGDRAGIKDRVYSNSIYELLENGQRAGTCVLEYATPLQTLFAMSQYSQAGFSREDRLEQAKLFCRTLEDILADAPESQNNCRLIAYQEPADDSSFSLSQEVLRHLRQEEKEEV

Row | SMILES | Ki [nM]
1 | CCn1nc(C)cc1-c1nnc(-c2cc(C(N)=O)cc3[nH]ncc23)[nH]1 [ZZZ001, 4-[5-(1-ethyl-3-methyl-1H-pyrazol-5-yl)-4H-1,2,4-triazol-3-yl]-1H-indazole-6-carboxamide] | > 990
2 | CCn1nc(C)c(F)c1-c1nc(-c2cc(C(N)=O)cc3c2cnn3C)n(C)n1 [ZZZ129, 4-[3-(1-ethyl-4-fluoro-3-methyl-1H-pyrazol-5-yl)-1-methyl-1H-1,2,4-triazol-5-yl]-1-methyl-1H-indazole-6-carboxamide] | 952
3 | CCn1nc(C)cc1-c1nnc(-c2c(C(F)F)c(C(N)=O)cc3c2cnn3C)[nH]1 [ZZZ011, 5-(difluoromethyl)-4-[5-(1-ethyl-3-methyl-1H-pyrazol-5-yl)-4H-1,2,4-triazol-3-yl]-1-methyl-1H-indazole-6-carboxamide] | > 270
4 | CCn1nc(CO)cc1-c1cnc(-c2cc(C(N)=O)cc3c2cnn3C)[nH]1 [ZZZ122, 4-{5-[1-ethyl-3-(hydroxymethyl)-1H-pyrazol-5-yl]-1H-imidazol-2-yl}-1-methyl-1H-indazole-6-carboxamide] | > 900
5 | CCn1nc(C)cc1-c1nnc(-c2cc(C(N)=O)cc3c2cnn3CC(C)(C)CN(C)C)[nH]1 [ZZZ013, 1-[3-(dimethylamino)-2,2-dimethylpropyl]-4-[5-(1-ethyl-3-methyl-1H-pyrazol-5-yl)-4H-1,2,4-triazol-3-yl]-1H-indazole-6-carboxamide] | > 990
6 | CCn1nc(C)cc1-c1nnc(-c2cc(C(N)=O)cc3c2cnn3C[C@H]2CCN(C3CC3)C2)[nH]1 (racemic) [ZZZ038, 1-{[(3S)-1-cyclopropylpyrrolidin-3-yl]methyl}-4-[5-(1-ethyl-3-methyl-1H-pyrazol-5-yl)-4H-1,2,4-triazol-3-yl]-1H-indazole-6-carboxamide] | 928
7 | CCn1nc(C)cc1-c1nnc(-c2cc(C(N)=O)cc3c2cnn3C2CCNCC2)[nH]1 [ZZZ067, 4-[5-(1-ethyl-3-methyl-1H-pyrazol-5-yl)-4H-1,2,4-triazol-3-yl]-1-(piperidin-4-yl)-1H-indazole-6-carboxamide] | 536
8 | CCn1nc(C)cc1-c1nc(-c2nc(C(N)=O)cc3c2cnn3C)n(CCN)n1 [ZZZ047, 4-[1-(2-aminoethyl)-3-(1-ethyl-3-methyl-1H-pyrazol-5-yl)-1H-1,2,4-triazol-5-yl]-1-methyl-1H-pyrazolo[4,3-c]pyridine-6-carboxamide] | > 90
9 | CCn1nc(C)cc1-c1nnc(-c2cc(C(N)=O)cc3c2cnn3C[C@H]2[C@@H]3CN(C(C)C)C[C@@H]32)[nH]1 [ZZZ017, 4-[5-(1-ethyl-3-methyl-1H-pyrazol-5-yl)-4H-1,2,4-triazol-3-yl]-1-{[(1R,5S,6r)-3-(propan-2-yl)-3-azabicyclo[3.1.0]hexan-6-yl]methyl}-1H-indazole-6-carboxamide] | > 990
10 | CCn1nc(C)cc1-c1nnc(-c2cc(C(N)=O)cc3c2cnn3C[C@@H]2CNCCO2)[nH]1 [ZZZ064, 4-[5-(1-ethyl-3-methyl-1H-pyrazol-5-yl)-4H-1,2,4-triazol-3-yl]-1-{[(2S)-morpholin-2-yl]methyl}-1H-indazole-6-carboxamide] | > 990
11 | CCn1nc(C)cc1-c1nnc(-c2cc(C(N)=O)cc3c2cnn3CCCC2CCNCC2)[nH]1 [ZZZ077, 4-[5-(1-ethyl-3-methyl-1H-pyrazol-5-yl)-4H-1,2,4-triazol-3-yl]-1-[3-(piperidin-4-yl)propyl]-1H-indazole-6-carboxamide] | > 990
12 | CCn1nc(C)c(F)c1-c1nnc(-c2cc(C(N)=O)cn3cncc23)[nH]1 [ZZZ128, 8-[5-(1-ethyl-4-fluoro-3-methyl-1H-pyrazol-5-yl)-4H-1,2,4-triazol-3-yl]imidazo[1,5-a]pyridine-6-carboxamide] | 556
13 | Cc1cc(-c2n[nH]c(-c3nc(C(N)=O)cc4c3cnn4C)n2)n(CCCN)n1 [ZZZ132, 4-{3-[1-(3-aminopropyl)-3-methyl-1H-pyrazol-5-yl]-1H-1,2,4-triazol-5-yl}-1-methyl-1H-pyrazolo[4,3-c]pyridine-6-carboxamide] | > 990
14 | CCn1nc(C)cc1-c1n[nH]c(-c2nc(C(N)=O)cc3[nH]ncc23)n1 [ZZZ012, 4-[3-(1-ethyl-3-methyl-1H-pyrazol-5-yl)-1H-1,2,4-triazol-5-yl]-1H-pyrazolo[4,3-c]pyridine-6-carboxamide] | 190
15 | CCn1nc(C)c(O)c1-c1nc(-c2nc(C(N)=O)cc3[nH]ncc23)n(C)n1 [ZZZ084, 4-[3-(1-ethyl-4-hydroxy-3-methyl-1H-pyrazol-5-yl)-1-methyl-1H-1,2,4-triazol-5-yl]-1H-pyrazolo[4,3-c] pyridine-6-carboxamide] | > 90.1
16 | CCn1nc(C)cc1-c1nnc(-c2cc(C(N)=O)cc3c2cnn3[C@@H](C)CN(C)C)[nH]1 [ZZZ020, 1-[(2S)-1-(dimethylamino)propan-2-yl]-4-[5-(1-ethyl-3-methyl-1H-pyrazol-5-yl)-4H-1,2,4-triazol-3-yl]-1H-indazole-6-carboxamide] | > 990
17 | CCn1nc(C)cc1-c1nnc(-c2cc(C(N)=O)cc3c2cnn3CCCNC2CCCCC2)[nH]1 [ZZZ071, 1-[3-(cyclohexylamino)propyl]-4-[5-(1-ethyl-3-methyl-1H-pyrazol-5-yl)-4H-1,2,4-triazol-3-yl]-1H-indazole-6-carboxamide] | > 990
18 | CCn1nc(C)cc1-c1nnc(-c2cc(C(N)=O)cc3c2cnn3CC2CCCN3CCCCC23)[nH]1 (centres unmarked) [ZZZ016, 4-[5-(1-ethyl-3-methyl-1H-pyrazol-5-yl)-4H-1,2,4-triazol-3-yl]-1-[(octahydro-2H-quinolizin-1-yl)methyl]-1H-indazole-6-carboxamide] | 826
19 | CCn1nc(C)cc1-c1nnc(-c2cc(C(N)=O)cc3c2cnn3C[C@@H](C)N(C)C)[nH]1 [ZZZ015, 1-[(2R)-2-(dimethylamino)propyl]-4-[5-(1-ethyl-3-methyl-1H-pyrazol-5-yl)-4H-1,2,4-triazol-3-yl]-1H-indazole-6-carboxamide] | > 990

Other lines, results leading:

Row | Ki [nM] | SMILES
20 | 727 | CCn1nc(C)cc1-c1nnc(-c2cc(C(N)=O)cc3c2cnn3CCCCN2CCOCC2)[nH]1 [ZZZ037, 4-[5-(1-ethyl-3-methyl-1H-pyrazol-5-yl)-4H-1,2,4-triazol-3-yl]-1-[4-(morpholin-4-yl)butyl]-1H-indazole-6-carboxamide]
21 | 900 | CCn1nc(C)cc1-c1n[nH]c(-c2cc(C(N)=O)cc3c2cnn3CCN2CCOCC2(C)C)n1 [ZZZ102, 1-[2-(3,3-dimethylmorpholin-4-yl)ethyl]-4-[3-(1-ethyl-3-methyl-1H-pyrazol-5-yl)-1H-1,2,4-triazol-5-yl]-1H-indazole-6-carboxamide]
22 | > 990 | CCn1nc(C)cc1-c1n[nH]c(-c2cc(C(N)=O)cc3c2cnn3CCN2CC(C)(O)C2)n1 [ZZZ103, 4-[3-(1-ethyl-3-methyl-1H-pyrazol-5-yl)-1H-1,2,4-triazol-5-yl]-1-[2-(3-hydroxy-3-methylazetidin-1-yl)ethyl]-1H-indazole-6-carboxamide]
23 | 842 | CCn1nc(C)cc1-c1n[nH]c(-c2cc(C(N)=O)cc3c2cnn3CCN2CC(O)C2)n1 [ZZZ100, 4-[3-(1-ethyl-3-methyl-1H-pyrazol-5-yl)-1H-1,2,4-triazol-5-yl]-1-[2-(3-hydroxyazetidin-1-yl)ethyl]-1H-indazole-6-carboxamide]
24 | 943 | CCn1nc(C)cc1-c1n[nH]c(-c2cc(C(N)=O)cc3c2cnn3CCN2CCO[C@@H](COC)C2)n1 (racemic) [ZZZ114, 4-[3-(1-ethyl-3-methyl-1H-pyrazol-5-yl)-1H-1,2,4-triazol-5-yl]-1-{2-[(2R)-2-(methoxymethyl)morpholin-4-yl]ethyl}-1H-indazole-6-carboxamide]
25 | 509 | CCn1nc(C)cc1-c1n[nH]c(-c2cc(C(N)=O)cc3c2cnn3CCN(C)CC#N)n1 [ZZZ101, 1-{2-[(cyanomethyl)(methyl)amino]ethyl}-4-[3-(1-ethyl-3-methyl-1H-pyrazol-5-yl)-1H-1,2,4-triazol-5-yl]-1H-indazole-6-carboxamide]
26 | 948 | CCn1nc(C)cc1-c1nnc(-c2cc(C(N)=O)cc3c2cnn3CC[C@@H]2COCCN2)[nH]1 [ZZZ059, 4-[5-(1-ethyl-3-methyl-1H-pyrazol-5-yl)-4H-1,2,4-triazol-3-yl]-1-{2-[(3R)-morpholin-3-yl]ethyl}-1H-indazole-6-carboxamide]
27 | 947 | CCn1nc(C)cc1-c1ncc(-c2cc(C(N)=O)cc3c2cnn3C)[nH]1 [ZZZ009, 4-[2-(1-ethyl-3-methyl-1H-pyrazol-5-yl)-1H-imidazol-5-yl]-1-methyl-1H-indazole-6-carboxamide]
28 | 954 | CCn1nc(C)cc1-c1n[nH]c(-c2cc(C(N)=O)cc3c2cnn3CCN(C)CCO)n1 [ZZZ109, 4-[3-(1-ethyl-3-methyl-1H-pyrazol-5-yl)-1H-1,2,4-triazol-5-yl]-1-{2-[(2-hydroxyethyl)(methyl)amino]ethyl}-1H-indazole-6-carboxamide]
29 | 541 | CCn1nc(C)cc1-c1n[nH]c(-c2cc(C(N)=O)cc3c2cnn3CCN2CCO[C@H](C)C2)n1 [ZZZ098, 4-[3-(1-ethyl-3-methyl-1H-pyrazol-5-yl)-1H-1,2,4-triazol-5-yl]-1-{2-[(2R)-2-methylmorpholin-4-yl]ethyl}-1H-indazole-6-carboxamide]
30 | 879 | CCn1nc(C)cc1-c1n[nH]c(-c2cc(C(N)=O)cc3c2cnn3CCN(C)CC(N)=O)n1 [ZZZ105, 1-{2-[(2-amino-2-oxoethyl)(methyl)amino]ethyl}-4-[3-(1-ethyl-3-methyl-1H-pyrazol-5-yl)-1H-1,2,4-triazol-5-yl]-1H-indazole-6-carboxamide]
31 | > 990 | CCN(CCO)CCn1ncc2c(-c3nc(-c4cc(C)nn4CC)n[nH]3)cc(C(N)=O)cc21 [ZZZ112, 1-{2-[ethyl(2-hydroxyethyl)amino]ethyl}-4-[3-(1-ethyl-3-methyl-1H-pyrazol-5-yl)-1H-1,2,4-triazol-5-yl]-1H-indazole-6-carboxamide]
32 | 723 | CCn1nc(C)cc1-c1n[nH]c(-c2cc(C(N)=O)cc3c2cnn3CCN2CCOC[C@@H]2C2CC2)n1 (racemic) [ZZZ099, 1-{2-[(3S)-3-cyclopropylmorpholin-4-yl]ethyl}-4-[3-(1-ethyl-3-methyl-1H-pyrazol-5-yl)-1H-1,2,4-triazol-5-yl]-1H-indazole-6-carboxamide]
